What was measured:
[1] = Selectivity index, ratio of CC50 for cytotoxicity against human A549 cells harboring ACE2-CI33 assessed as cell viability by celltiter glo assay to EC50 for antiviral activity against SARS-CoV-2 Wuhan infected in human A549 cells harboring ACE2-Cl33; assay type: toxicity, cell-based; conditions: read-out: Ratio CC50/EC50
SARS-CoV-2 [2] = assay: Antiviral activity against SARS-CoV-2 Wuhan infected in human A549 cells harboring ACE2-Cl33 at 0.1 MOI assessed as inhibition of viral replication pretreated with compounds for 2 hrs followed by infection for 1 hr and measured after 72 hrs post-infection by qRT-PCR analysis; assay type: functional, organism-based; conditions: Severe acute respiratory syndrome coronavirus 2, Wuhan
[3] = Selectivity index, ratio of CC50 for cytotoxicity against human Caco-2 cells harboring ACE2-CI33 assessed as cell viability by celltiter glo assay to EC50 for antiviral activity against SARS-CoV-2 Wuhan infected in human A549 cells harboring ACE2-Cl33; assay type: toxicity, cell-based; conditions: read-out: Ratio CC50/EC50
SARS-CoV-2 [4] = assay: Antiviral activity against SARS-CoV-2 Wuhan infected in human Caco-2 cells harboring ACE2-Cl33 at 0.1 MOI assessed as inhibition of viral replication pretreated with compounds for 2 hrs followed by infection for 1 hr and measured after 72 hrs post-infection by qRT-PCR analysis; assay type: functional, organism-based; conditions: Severe acute respiratory syndrome coronavirus 2, Wuhan
SARS-CoV-2 [5] = assay: Antiviral activity against SARS-CoV-2 Delta B1.617.2 infected in human A549 cells harboring ACE2-Cl33 at 0.1 MOI assessed as inhibition of viral replication pretreated with compounds for 2 hrs followed by infection for 1 hr and measured after 72 hrs post-infection by qRT-PCR analysis; assay type: functional, organism-based; conditions: Severe acute respiratory syndrome coronavirus 2, Delta B1.617.2, A549

SMILES	selectivity ratio [1]	EC50 (SARS-CoV-2 [2])	other results
CN(C)CCCCCNCc1ccc(-c2cc3c(ccn3-c3ccccc3)c(-c3ccc(CNCCCCCN(C)C)cc3)n2)cc1	8.18	–	–
CN(C)CCCCNCc1ccc(-c2cc(-c3ccc(CNCCCCN(C)C)cc3)c3ccn(-c4ccccc4)c3c2)cc1	1.88	528 nM	selectivity ratio [3]: 0.93; EC50 (SARS-CoV-2 [4]): 787 nM; EC50 (SARS-CoV-2 [5]): 681 nM
CN1CCN(CCCCNCc2ccc(-c3cc(-c4ccc(CNCCCCN5CCN(C)CC5)cc4)c4ccn(-c5ccccc5)c4c3)cc2)CC1	2.74	–	–
CN(C)CCCCNCc1ccc(-c2nc(-c3ccc(CNCCCCN(C)C)cc3)c3ccn(-c4ccc(CNCCCCN(C)C)cc4)c3n2)cc1	6.67	–	–
CN(C)CCCCNCc1ccc(-c2nc(-c3ccc(CNCCCCN(C)C)cc3)c3ncn(-c4ccccc4)c3n2)cc1	≥ 2.68	–	–
CCN(CC)CCCCNCc1ccc(-c2cc3c(ccn3-c3ccccc3)c(-c3ccc(CNCCCCN(CC)CC)cc3)n2)cc1	> 13.9	–	–
CN(C)CCCCNCc1ccc(-c2cc3c(ccn3-c3ccccc3)c(-c3ccc(CNCCCCN(C)C)cc3)n2)cc1	2.18	–	–
CN(C)CCCCNCc1ccc(-c2cn(-c3ccccc3)c3ncnc(-c4ccc(CNCCCCN(C)C)cc4)c23)cc1	> 9.3	–	–
CN(C)CCCCNCc1ccc(-c2ccc3ccc4ccc(-c5ccc(CNCCCCN(C)C)cc5)nc4c3n2)cc1	> 1.09	9170 nM	–
CN1CCN(CCCCNCc2ccc(-c3ccc4ccc5ccc(-c6ccc(CNCCCCN7CCN(C)CC7)cc6)nc5c4n3)cc2)CC1	–	> 10000 nM	–
CN(C)CCCNCc1ccc(-c2cn(-c3ccc(CNCCCN(C)C)cc3)c3ncnc(-c4ccc(CNCCCN(C)C)cc4)c23)cc1	> 1.43	–	–
CN(C)CCCCNCc1ccc(-c2cc(-c3ccc(CNCCCCN(C)C)cc3)c3ccn(-c4ccccc4)c3n2)cc1	7.38	–	–
CN(C)CCCCNCc1ccc(-c2nc(-c3ccccc3)c3ccn(-c4ccc(CNCCCCN(C)C)cc4)c3n2)cc1	2.64	920 nM	–
CN(C)CCCNCc1ccc(-c2nc(-c3ccc(CNCCCN(C)C)cc3)c3ccn(-c4ccc(CNCCCN(C)C)cc4)c3n2)cc1	> 14.6	436 nM	selectivity ratio [3]: ≥ 4.57; EC50 (SARS-CoV-2 [4]): 1540 nM
CN(C)CCCCCNCc1ccc(-c2cc(-c3ccc(CNCCCCCN(C)C)cc3)c3ccn(-c4ccccc4)c3c2)cc1	2.35	1320 nM	selectivity ratio [3]: 1.88; EC50 (SARS-CoV-2 [4]): 946 nM; EC50 (SARS-CoV-2 [5]): 1280 nM
CN(C)CCCCNCc1ccc(-c2nc(-c3ccc(CNCCCCN(C)C)cc3)c3c(ccn3-c3ccccc3)n2)cc1	> 15.1	–	–
CCC(CC)COC(=O)[C@H](C)N[P@](=O)(OC[C@H]1O[C@@](C#N)(c2ccc3c(N)ncnn23)[C@H](O)[C@@H]1O)Oc1ccccc1 [REMDESIVIR]	> 1.18	–	–
O=c1c(O)cc([C@H]2Oc3cc(O)cc(O)c3C[C@H]2O)cc2c([C@H]3Oc4cc(O)cc(O)c4C[C@H]3O)cc(O)c(O)c12 [THEAFLAVIN]	> 83.3	–	–
